# How the values were obtained:
# 786-0 [1] = test: Growth inhibition of human 786-0 cells assessed as cell growth at 0.01 uM incubated for 48 hrs by sulforhodamine B assay relative to control; format: functional; conditions: 786-0, 48 h, read-out: Activity
# CAKI-1 = test: Growth inhibition of human Caki1 cells incubated for 48 hrs by sulforhodamine B assay; format: functional, cell-based; conditions: CAKI-1, 48 h
# IGROV-1 [2] = test: Growth inhibition of human IGROV1 cells assessed as cell growth at 0.01 uM incubated for 48 hrs by sulforhodamine B assay relative to control; format: functional; conditions: IGROV-1, 48 h, read-out: Activity
# SF-268 = test: Growth inhibition of human SF268 cells incubated for 48 hrs by sulforhodamine B assay; format: functional, cell-based; conditions: SF-268, 48 h
# OVCAR-4 = test: Growth inhibition of human OVCAR4 cells assessed as cell growth at 0.1 uM incubated for 48 hrs by sulforhodamine B assay relative to control; format: functional; conditions: OVCAR-4, 48 h, read-out: Activity
# RXF 393 = test: Growth inhibition of human RXF393 cells assessed as cell growth at 0.01 uM incubated for 48 hrs by sulforhodamine B assay relative to control; format: functional; conditions: RXF 393, 48 h, read-out: Activity
# T47D = test: Growth inhibition of human T47D cells assessed as cell growth at 0.1 uM incubated for 48 hrs by sulforhodamine B assay relative to control; format: functional; conditions: read-out: Activity
# IGROV-1 [3] = test: Growth inhibition of human IGROV1 cells assessed as cell growth at 1 uM incubated for 48 hrs by sulforhodamine B assay relative to control; format: functional; conditions: IGROV-1, 48 h, read-out: Activity
# M14 = test: Growth inhibition of human M14 cells assessed as cell growth at 0.01 uM incubated for 48 hrs by sulforhodamine B assay relative to control; format: functional; conditions: M14, 48 h, read-out: Activity
# HCT-15 = test: Growth inhibition of human HCT15 cells assessed as cell growth at 0.1 uM incubated for 48 hrs by sulforhodamine B assay relative to control; format: functional; conditions: HCT-15, 48 h, read-out: Activity
# NCI/ADR-RES [4] = test: Growth inhibition of human NCI/ADR-RES cells assessed as cell growth at 100 uM incubated for 48 hrs by sulforhodamine B assay relative to control; format: functional; conditions: read-out: Activity
# K562 = test: Growth inhibition of human K562 cells assessed as cell growth at 100 uM incubated for 48 hrs by sulforhodamine B assay relative to control; format: functional; conditions: K562, 48 h, read-out: Activity
# SK-OV-3 [5] = test: Growth inhibition of human SKOV3 cells assessed as cell growth at 0.1 uM incubated for 48 hrs by sulforhodamine B assay relative to control; format: functional; conditions: SK-OV-3, 48 h, read-out: Activity
# NCI/ADR-RES [6] = test: Growth inhibition of human NCI/ADR-RES cells assessed as cell growth at 0.01 uM incubated for 48 hrs by sulforhodamine B assay relative to control; format: functional; conditions: read-out: Activity
# BT-549 = test: Growth inhibition of human BT549 cells assessed as cell growth at 0.01 uM incubated for 48 hrs by sulforhodamine B assay relative to control; format: functional; conditions: BT-549, 48 h, read-out: Activity
# SK-MEL-28 [7] = test: Growth inhibition of human SK-MEL-28 cells incubated for 48 hrs by sulforhodamine B assay; format: functional, cell-based; conditions: SK-MEL-28, 48 h
# IGROV-1 [8] = test: Growth inhibition of human IGROV1 cells assessed as cell growth at 0.1 uM incubated for 48 hrs by sulforhodamine B assay relative to control; format: functional; conditions: IGROV-1, 48 h, read-out: Activity
# SK-MEL-28 [9] = test: Growth inhibition of human SK-MEL-28 cells assessed as cell growth at 1 uM incubated for 48 hrs by sulforhodamine B assay relative to control; format: functional; conditions: SK-MEL-28, 48 h, read-out: Activity
# SK-MEL-5 = test: Growth inhibition of human SK-MEL-5 cells assessed as cell growth at 100 uM incubated for 48 hrs by sulforhodamine B assay relative to control; format: functional; conditions: SK-MEL-5, 48 h, read-out: Activity
# KM12 [10] = test: Growth inhibition of human KM12 cells assessed as cell growth at 100 uM incubated for 48 hrs by sulforhodamine B assay relative to control; format: functional; conditions: KM12, 48 h, read-out: Activity
# UACC-257 = test: Growth inhibition of human UACC257 cells assessed as cell growth at 1 uM incubated for 48 hrs by sulforhodamine B assay relative to control; format: functional; conditions: UACC-257, 48 h, read-out: Activity
# SNB-75 = test: Growth inhibition of human SNB75 cells assessed as cell growth at 1 uM incubated for 48 hrs by sulforhodamine B assay relative to control; format: functional; conditions: SNB-75, 48 h, read-out: Activity
# KM12 [11] = test: Growth inhibition of human KM12 cells incubated for 48 hrs by sulforhodamine B assay; format: functional, cell-based; conditions: KM12, 48 h
# 786-0 [12] = test: Growth inhibition of human 786-0 cells assessed as cell growth at 0.1 uM incubated for 48 hrs by sulforhodamine B assay relative to control; format: functional; conditions: 786-0, 48 h, read-out: Activity
# U-251 [13] = test: Growth inhibition of human U251 cells assessed as cell growth at 1 uM incubated for 48 hrs by sulforhodamine B assay relative to control; format: functional; conditions: U-251, 48 h, read-out: Activity
# SK-OV-3 [14] = test: Growth inhibition of human SKOV3 cells assessed as cell growth at 100 uM incubated for 48 hrs by sulforhodamine B assay relative to control; format: functional; conditions: SK-OV-3, 48 h, read-out: Activity
# SK-MEL-2 = test: Growth inhibition of human SK-MEL-2 cells assessed as cell growth at 10 uM incubated for 48 hrs by sulforhodamine B assay relative to control; format: functional; conditions: SK-MEL-2, 48 h, read-out: Activity
# NCI-H522 [15] = test: Growth inhibition of human NCI-H522 cells assessed as cell growth at 1 uM incubated for 48 hrs by sulforhodamine B assay relative to control; format: functional; conditions: NCI-H522, 48 h, read-out: Activity
# HT-29 = test: Growth inhibition of human HT-29 cells assessed as cell growth at 10 uM incubated for 48 hrs by sulforhodamine B assay relative to control; format: functional; conditions: HT-29, 48 h, read-out: Activity
# U-251 [16] = test: Growth inhibition of human U251 cells assessed as cell growth at 100 uM incubated for 48 hrs by sulforhodamine B assay relative to control; format: functional; conditions: U-251, 48 h, read-out: Activity
# SF-295 = test: Growth inhibition of human SF295 cells assessed as cell growth at 1 uM incubated for 48 hrs by sulforhodamine B assay relative to control; format: functional; conditions: SF-295, 48 h, read-out: Activity
# NCI-H522 [17] = test: Growth inhibition of human NCI-H522 cells assessed as cell growth at 10 uM incubated for 48 hrs by sulforhodamine B assay relative to control; format: functional; conditions: NCI-H522, 48 h, read-out: Activity
# [18] = read-out: LC50 (the source's name)
# [19] = read-out: pLC50 (the source's name) (converted)
compound,measurement,setting,value
COc1cc(Cl)cc(-c2nn(-c3cccc(NC(=O)Nc4ccc(Cl)c(C(F)(F)F)c4)c3)cc2-c2ccncc2)c1,growth at 0.01 µM,786-0 [1],96%
same,GI50,CAKI-1; read-out: GI50,0.615 µM
same,CC50,CAKI-1; [18],> 100 µM
same,TGI,CAKI-1; read-out: TGI,94.3 µM
same,GI50,CAKI-1; read-out: pGI50 (converted),0.813 µM
same,CC50,CAKI-1; [19],> 100 µM
same,TGI,CAKI-1; read-out: pTGI (converted),10.2 µM
same,growth at 0.01 µM,IGROV-1 [2],112%
same,GI50,SF-268; read-out: GI50,2.55 µM
same,CC50,SF-268; [18],7.96 µM
same,TGI,SF-268; read-out: TGI,12.1 µM
same,GI50,SF-268; read-out: pGI50 (converted),2.63 µM
same,CC50,SF-268; [19],79.4 µM
same,TGI,SF-268; read-out: pTGI (converted),12 µM
same,growth at 0.1 µM,OVCAR-4,97%
same,growth at 0.01 µM,RXF 393,97%
same,growth at 0.1 µM,T47D,103%
same,growth at 1 µM,IGROV-1 [3],87%
same,growth at 0.01 µM,M14,97%
same,growth at 0.1 µM,HCT-15,54%
same,growth at 100 µM,NCI/ADR-RES [4],-15%
same,growth at 100 µM,K562,-51%
same,growth at 0.1 µM,SK-OV-3 [5],100%
same,growth at 0.01 µM,NCI/ADR-RES [6],98%
same,growth at 0.01 µM,BT-549,92%
same,GI50,SK-MEL-28 [7]; read-out: GI50,2.41 µM
same,CC50,SK-MEL-28 [7]; [18],5.41 µM
same,TGI,SK-MEL-28 [7]; read-out: TGI,84.1 µM
same,GI50,SK-MEL-28 [7]; read-out: pGI50 (converted),2.4 µM
same,CC50,SK-MEL-28 [7]; [19],53.7 µM
same,TGI,SK-MEL-28 [7]; read-out: pTGI (converted),4.17 µM
same,growth at 0.1 µM,IGROV-1 [8],99%
same,growth at 1 µM,SK-MEL-28 [9],85%
same,growth at 100 µM,SK-MEL-5,-77%
same,growth at 100 µM,KM12 [10],-70%
same,growth at 1 µM,UACC-257,83%
same,growth at 1 µM,SNB-75,68%
same,GI50,KM12 [11]; read-out: GI50,0.555 µM
same,CC50,KM12 [11]; [18],4 µM
same,TGI,KM12 [11]; read-out: TGI,44.4 µM
same,GI50,KM12 [11]; read-out: pGI50 (converted),0.55 µM
same,CC50,KM12 [11]; [19],40.7 µM
same,TGI,KM12 [11]; read-out: pTGI (converted),4.47 µM
same,growth at 0.1 µM,786-0 [12],96%
same,growth at 1 µM,U-251 [13],43%
same,growth at 100 µM,SK-OV-3 [14],-39%
same,growth at 10 µM,SK-MEL-2,-34%
same,growth at 1 µM,NCI-H522 [15],34%
same,growth at 10 µM,HT-29,5.57%
same,growth at 100 µM,U-251 [16],-100%
same,growth at 1 µM,SF-295,31%
same,growth at 10 µM,NCI-H522 [17],-10.4%
O=C(Nc1cccc(-n2cc(-c3ccncc3)c(-c3cc(O)cc(Cl)c3)n2)c1)Nc1ccc(Cl)c(Cl)c1,growth at 0.01 µM,786-0 [1],92%
same,GI50,CAKI-1; read-out: GI50,2.21 µM
same,CC50,CAKI-1; [18],> 100 µM
same,TGI,CAKI-1; read-out: TGI,70.1 µM
same,GI50,CAKI-1; read-out: pGI50 (converted),2.19 µM
same,CC50,CAKI-1; [19],> 100 µM
same,TGI,CAKI-1; read-out: pTGI (converted),7.08 µM
same,growth at 0.01 µM,IGROV-1 [2],98%
same,GI50,SF-268; read-out: GI50,3.22 µM
same,CC50,SF-268; [18],> 100 µM
same,TGI,SF-268; read-out: TGI,32.6 µM
same,GI50,SF-268; read-out: pGI50 (converted),3.24 µM
same,CC50,SF-268; [19],> 100 µM
same,TGI,SF-268; read-out: pTGI (converted),33.1 µM
same,growth at 0.1 µM,OVCAR-4,95%
same,growth at 0.01 µM,RXF 393,93%
same,growth at 0.1 µM,T47D,88%
same,growth at 1 µM,IGROV-1 [3],95%
same,growth at 0.01 µM,M14,99%
same,growth at 0.1 µM,HCT-15,95%
same,growth at 100 µM,NCI/ADR-RES [4],2%
same,growth at 100 µM,K562,5%
same,growth at 0.1 µM,SK-OV-3 [5],103%
same,growth at 0.01 µM,NCI/ADR-RES [6],109%
same,growth at 0.01 µM,BT-549,94%
same,GI50,SK-MEL-28 [7]; read-out: GI50,2.14 µM
same,CC50,SK-MEL-28 [7]; [18],4.2 µM
same,TGI,SK-MEL-28 [7]; read-out: TGI,55.5 µM
same,GI50,SK-MEL-28 [7]; read-out: pGI50 (converted),2.14 µM
same,CC50,SK-MEL-28 [7]; [19],41.7 µM
same,TGI,SK-MEL-28 [7]; read-out: pTGI (converted),5.5 µM
same,growth at 0.1 µM,IGROV-1 [8],101%
same,growth at 1 µM,SK-MEL-28 [9],90%
same,growth at 100 µM,SK-MEL-5,-78%
same,growth at 100 µM,KM12 [10],-63%
same,growth at 1 µM,UACC-257,92%
same,growth at 1 µM,SNB-75,63%
same,GI50,KM12 [11]; read-out: GI50,1.5 µM
same,CC50,KM12 [11]; [18],9 µM
same,TGI,KM12 [11]; read-out: TGI,36.9 µM
same,GI50,KM12 [11]; read-out: pGI50 (converted),1.51 µM
same,CC50,KM12 [11]; [19],9.12 µM
same,TGI,KM12 [11]; read-out: pTGI (converted),3.72 µM
same,growth at 0.1 µM,786-0 [12],90%
same,growth at 1 µM,U-251 [13],74%
same,growth at 100 µM,SK-OV-3 [14],-22%
same,growth at 1 µM,NCI-H522 [15],54%
same,growth at 100 µM,U-251 [16],-57%
same,growth at 1 µM,SF-295,77%
